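In this assay, cells in 96-well plates receive the compound at five concentrations for 48 hours. Endpoints are linearly interpolated between the surrounding concentrations. GI50 marks 50% less growth.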 Active and inactive are the calls of the source. Rule as the data show it: active = GI50 up to about 1.1 µM and inactive = higher.
How the values were obtained:
Test in all cases: DTP human tumour cell line panel, 48 h
NCI-H23 = tested on: NCI-H23
SN12C = tested on: SN12C
K562 = tested on: K562
ACHN = tested on: ACHN
MCF7 = tested on: MCF7
NCI-H460 = tested on: NCI-H460
DU-145 = tested on: DU-145
HT-29 = tested on: HT-29
786-0 = tested on: 786-0
HCT-116 = tested on: HCT-116
Hs-578T = tested on: Hs-578T
NCI-H522 = tested on: NCI-H522
PC-3 = tested on: PC-3
IGROV-1 = tested on: IGROV-1
MDA-MB-231 = tested on: MDA-MB-231
TK-10 = tested on: TK-10
SF-295 = tested on: SF-295
A549 = tested on: A549
HOP-92 = tested on: HOP-92
RXF 393 = tested on: RXF 393

Measured: GI50

COc1ccc(OC)c2c1C(=O)C(Cl)=C(Cl)C2=O
inactive: NCI-H23 6.37 µM | SN12C 10.7 µM | K562 > 22.2 µM | ACHN 2.99 µM | MCF7 2.6 µM | NCI-H460 19.8 µM | DU-145 19.6 µM | HT-29 4.18 µM | 786-0 3.41 µM | HCT-116 1.72 µM | Hs-578T 2.65 µM | NCI-H522 2.04 µM | PC-3 14.5 µM | IGROV-1 15.5 µM | MDA-MB-231 2.74 µM | TK-10 3.09 µM | SF-295 20.1 µM | A549 22.3 µM | HOP-92 2.51 µM | RXF 393 1.85 µM

CCOC(=O)/C=C/[C@H](O[Si](CC)(CC)CC)C(C)(C)C
inactive: NCI-H23 > 100 µM | SN12C 39 µM | K562 65.8 µM | ACHN 28.7 µM | MCF7 25.8 µM | NCI-H460 > 100 µM | DU-145 > 100 µM | HT-29 34.1 µM | 786-0 80.5 µM | HCT-116 51.2 µM | Hs-578T > 100 µM | NCI-H522 29.1 µM | PC-3 78.3 µM | IGROV-1 > 100 µM | MDA-MB-231 80.4 µM | TK-10 > 100 µM | SF-295 42.4 µM | A549 35 µM | HOP-92 > 100 µM | RXF 393 47.1 µM

C[C@]12CCC3c4ccc(O)cc4CC[C@H]3C1CC(=O)N(N)C2=O (stereo not given in full)
inactive: NCI-H23 > 100 µM | SN12C > 100 µM | K562 > 100 µM | ACHN > 100 µM | MCF7 > 100 µM | NCI-H460 > 100 µM | DU-145 > 100 µM | HT-29 > 100 µM | 786-0 > 100 µM | HCT-116 > 100 µM | Hs-578T > 100 µM | NCI-H522 > 100 µM | PC-3 > 100 µM | IGROV-1 > 100 µM | MDA-MB-231 > 100 µM | TK-10 > 100 µM | SF-295 > 100 µM | A549 > 100 µM | HOP-92 > 100 µM | RXF 393 > 100 µM

CC(C)(C)[C@H]1CCC2(OCCO2)[C@](O)(CCCO)C1
inactive: NCI-H23 > 100 µM | SN12C > 100 µM | K562 > 100 µM | ACHN > 100 µM | MCF7 > 100 µM | NCI-H460 > 100 µM | DU-145 > 100 µM | HT-29 > 100 µM | 786-0 > 100 µM | HCT-116 > 100 µM | Hs-578T > 100 µM | NCI-H522 > 100 µM | PC-3 > 100 µM | IGROV-1 > 100 µM | MDA-MB-231 > 100 µM | TK-10 > 100 µM | SF-295 > 100 µM | A549 > 100 µM | HOP-92 > 100 µM | RXF 393 > 100 µM

CSC(=S)N/N=C/c1ccccc1
inactive: NCI-H23 33.5 µM | SN12C 50.2 µM | K562 42.5 µM | ACHN 43.4 µM | MCF7 33.6 µM | NCI-H460 43.7 µM | DU-145 42.3 µM | HT-29 33 µM | 786-0 39.4 µM | HCT-116 29.6 µM | Hs-578T > 100 µM | NCI-H522 52.6 µM | PC-3 97.9 µM | IGROV-1 22.3 µM | MDA-MB-231 > 100 µM | TK-10 > 100 µM | SF-295 39.2 µM | A549 43.2 µM | HOP-92 26.9 µM | RXF 393 28.8 µM

O=C1OC(=O)C2C1C(c1ccccc1[N+](=O)[O-])C=C(c1ccco1)N2c1ccncc1 (stereo not given)
inactive: NCI-H23 11.3 µM | SN12C 8.95 µM | K562 1.35 µM | ACHN 1.85 µM | MCF7 2.1 µM | NCI-H460 12.1 µM | DU-145 7.01 µM | HT-29 2.57 µM | 786-0 1.91 µM | HCT-116 1.83 µM | Hs-578T > 25.9 µM | NCI-H522 2.28 µM | PC-3 13.3 µM | IGROV-1 2.09 µM | MDA-MB-231 13 µM | TK-10 3.82 µM | SF-295 10.3 µM | A549 13.6 µM | HOP-92 3.68 µM | RXF 393 4.67 µM

Clc1nc(Cl)c(Cl)c(Cl)n1
inactive: NCI-H23 18.5 µM | SN12C 20.6 µM | K562 8.99 µM | ACHN 8.91 µM | MCF7 15.8 µM | NCI-H460 21.6 µM | DU-145 16.7 µM | HT-29 20.7 µM | 786-0 19.7 µM | HCT-116 18.9 µM | Hs-578T 20.9 µM | NCI-H522 15.9 µM | PC-3 16.6 µM | IGROV-1 19.9 µM | MDA-MB-231 18 µM | TK-10 20.9 µM | SF-295 19.3 µM | A549 19.8 µM | HOP-92 25.5 µM | RXF 393 18.3 µM

O=c1[nH]c2ccc(C(F)(F)F)cc2nc1-c1ccccc1
inactive: NCI-H23 > 100 µM | SN12C > 100 µM | K562 > 100 µM | ACHN > 100 µM | MCF7 > 100 µM | NCI-H460 > 100 µM | DU-145 > 100 µM | HT-29 > 100 µM | 786-0 > 100 µM | HCT-116 > 100 µM | Hs-578T 59.6 µM | NCI-H522 > 100 µM | PC-3 > 100 µM | IGROV-1 > 100 µM | MDA-MB-231 > 100 µM | TK-10 > 100 µM | SF-295 > 100 µM | A549 > 100 µM | HOP-92 > 100 µM | RXF 393 > 100 µM

CC(NC(NC(C)C12CC3CC(CC(C3)C1)C2)=C(C(Cl)=C(Cl)Cl)[N+](=O)[O-])C12CC3CC(CC(C3)C1)C2 (stereo not given)
inactive: NCI-H23 7.96 µM | SN12C 7.59 µM | K562 9.08 µM | ACHN 28.2 µM | MCF7 8.36 µM | NCI-H460 4.36 µM | DU-145 45 µM | HT-29 4.62 µM | 786-0 13 µM | HCT-116 9.04 µM | Hs-578T 3.83 µM | NCI-H522 7.11 µM | PC-3 8.3 µM | IGROV-1 8.02 µM | MDA-MB-231 4.5 µM | TK-10 33.3 µM | SF-295 24.9 µM | A549 6.31 µM | HOP-92 3.58 µM | RXF 393 13 µM

Source: ChEMBL document CHEMBL1201862, “PubChem BioAssay data set” (2004)
